Columns and labels:
MAGL = target: T1, MAGL (Mus musculus, UniProt O35678); experiment: Mouse brain proteomes from inhibitor treated mice (oral gavage, brain proteomes analyzed 4 h after administration); type: in vivo, mouse (C57Bl/6J); settings: brain proteome 4 h after administration, read-out: % Inh 5 mg/kg MGLL (Mouse)
T1 construct: from tissue; host or cells: brain of wild-type C57Bl/6J mice
T1 sequence (O35678 1-303): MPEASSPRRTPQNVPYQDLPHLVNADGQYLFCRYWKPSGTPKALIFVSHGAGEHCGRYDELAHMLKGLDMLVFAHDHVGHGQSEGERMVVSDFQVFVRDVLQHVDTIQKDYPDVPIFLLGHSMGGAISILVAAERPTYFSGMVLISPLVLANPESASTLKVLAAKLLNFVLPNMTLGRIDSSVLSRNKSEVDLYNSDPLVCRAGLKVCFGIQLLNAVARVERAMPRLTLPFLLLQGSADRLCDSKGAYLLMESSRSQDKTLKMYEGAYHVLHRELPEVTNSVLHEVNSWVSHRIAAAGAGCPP
Experimental: Compounds are tested to assess their MAGL and serine hydrolase activity using the following in vitro and in vivo assays.
Preparation of Mouse Brain Proteomes from Inhibitor Treated Mice.
Inhibitors were administered to wild-type C57Bl/6J by oral gavage in a vehicle of polyethylene glycol. Each animal was sacrificed 4 h following administration and brain proteomes were prepared and analyzed according to previously established methods (See Niphakis, M. J., et al. (2011) ACS Chem. Neurosci. and Long, J. Z., et al. Nat. Chem. Biol. 5:37-44).

MGLL = target: T2, MGLL (Mus musculus, UniProt O35678); experiment: In vitro competitive activity-based protein profiling, mouse brain proteome; type: biochemical
T2 construct: Brain; from tissue; host or cells: mouse brain proteome
T2 sequence (O35678 1-303): T1 sequence (O35678 1-303)
Experimental: [Worded in the source for another species; this species is reported under the same test.] (§1) Proteomes (human prefrontal cortex or cell membrane fractions) (50 μL, 1.0 mg/mL total protein concentration) were preincubated with varying concentrations of inhibitors at 37° C. After 30 min, FP—Rh or HT-01 (1.0 μL, 50 μM in DMSO) was added and the mixture was incubated for another 30 min at room temperature. Reactions were quenched with SDS loading buffer (15 μL-4×) and run on SDS-PAGE.

ABHD6 = target: T3, ABHD6 (Mus musculus, UniProt Q8R2Y0); experiment: In vitro competitive activity-based protein profiling, mouse brain proteome, ABHD6; type: biochemical; settings: mouse
T3 construct: Brain; from tissue; host or cells: mouse brain proteome
T3 sequence (Q8R2Y0 1-336): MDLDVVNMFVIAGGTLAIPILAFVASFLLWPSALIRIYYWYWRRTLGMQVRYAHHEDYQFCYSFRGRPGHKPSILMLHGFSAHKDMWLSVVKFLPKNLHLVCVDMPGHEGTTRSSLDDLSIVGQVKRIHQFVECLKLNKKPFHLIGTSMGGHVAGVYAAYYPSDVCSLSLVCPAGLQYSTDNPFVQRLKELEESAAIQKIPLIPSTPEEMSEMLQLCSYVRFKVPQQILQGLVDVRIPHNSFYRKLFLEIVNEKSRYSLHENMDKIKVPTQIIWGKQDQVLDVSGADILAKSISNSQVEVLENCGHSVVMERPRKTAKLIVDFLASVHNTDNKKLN
Experimental: [Worded in the source for another target; this target is reported under the same test.] as §1

Compound | inhibition at 5 mg/kg (MAGL) [%] | IC50 (MGLL) [nM] | IC50 (ABHD6) [nM]
CS(=O)(=O)N1CCC2(CCN(c3cc(Cl)ccc3CN3CCN(C(=O)OC(C(F)(F)F)C(F)(F)F)CC3)C2)CC1 [Example 30, 1,1,1,3,3,3-Hexafluoropropan-2-yl 4-(4-chloro-2-(8-(methylsulfonyl)-2,8-diazaspiro[4.5]decan-2-yl)benzyl)piperazine-1-carboxylate] | ≤ 25 | < 100 | > 1000
O=C(OC(C(F)(F)F)C(F)(F)F)N1CCC2(CC1)CN(Cc1c(N3CC4COCC4C3)cccc1C(F)(F)F)C2 (stereo not drawn) [Example 32, 1,1,1,3,3,3-Hexafluoropropan-2-yl 2-(2-(tetrahydro-1H-furo[3,4-c]pyrrol-5(3H)-yl)-6-(trifluoromethyl)benzyl)-2,7-diazaspiro[3.5]nonane-7-carboxylate] | ≥ 75 | < 100 | > 1000
O=C(OC(C(F)(F)F)C(F)(F)F)N1CCC2(CC1)CN(Cc1ccc(Cl)cc1N1CCOCC1)C2 [Example 39, 1,1,1,3,3,3-Hexafluoropropan-2-yl 2-(4-chloro-2-morpholinobenzyl)-2,7-diazaspiro[3.5]nonane-7-carboxylate] | ≥ 75 | < 100 | 100 to 1000
CS(=O)(=O)N1CCN(c2cccc(Cl)c2CN2CC3(CCN(C(=O)OC(C(F)(F)F)C(F)(F)F)CC3)C2)CC1 [Example 44, 1,1,1,3,3,3-Hexafluoropropan-2-yl 2-(2-chloro-6-(4-(methylsulfonyl)piperazin-1-yl)benzyl)-2,7-diazaspiro[3.5]nonane-7-carboxylate] | ≥ 75 | < 100 | < 100
O=C(OC(C(F)(F)F)C(F)(F)F)N1CCC2(CC1)CN(Cc1c(Cl)cccc1N1CCCCC1)C2 [Example 45, 1,1,1,3,3,3-Hexafluoropropan-2-yl 2-(2-chloro-6-(piperidin-1-yl)benzyl)-2,7-diazaspiro[3.5]nonane-7-carboxylate] | ≥ 75 | < 100 | < 100
CC(=O)N1CCN(c2cccc(Cl)c2CN2CC3(CCN(C(=O)OC(C(F)(F)F)C(F)(F)F)CC3)C2)CC1 [Example 49, 1,1,1,3,3,3-Hexafluoropropan-2-yl 2-(2-(4-acetylpiperazin-1-yl)-6-chlorobenzyl)-2,7-diazaspiro[3.5]nonane-7-carboxylate] | ≥ 75 | < 100 | < 100
CCN1CCN(c2cccc(Cl)c2CN2CC3(CCN(C(=O)OC(C(F)(F)F)C(F)(F)F)CC3)C2)CC1 [Example 50, 1,1,1,3,3,3-Hexafluoropropan-2-yl 2-(2-chloro-6-(4-ethylpiperazin-1-yl)benzyl)-2,7-diazaspiro[3.5]nonane-7-carboxylate] | ≤ 25 | < 100 | 100 to 1000
O=C(OC(C(F)(F)F)C(F)(F)F)N1CCC2(CC1)CN(Cc1c(N3CCC4(CCOCC4)C3)cccc1C(F)(F)F)C2 [Example 52, 1,1,1,3,3,3-Hexafluoropropan-2-yl 2-(2-(8-oxa-2-azaspiro[4.5]decan-2-yl)-6-(trifluoromethyl)benzyl)-2,7-diazaspiro[3.5]nonane-7-carboxylate] | ≥ 75 | < 100 | 100 to 1000
CS(=O)(=O)N1CCN(c2cccc(C(F)(F)F)c2CN2CC3(CCN(C(=O)OC(C(F)(F)F)C(F)(F)F)CC3)C2)CC1 [Example 53, 1,1,1,3,3,3-Hexafluoropropan-2-yl 2-(2-(4-(methylsulfonyl)piperazin-1-yl)-6-(trifluoromethyl)benzyl)-2,7-diazaspiro[3.5]nonane-7-carboxylate] | ≥ 75 | < 100 | 100 to 1000
O=C(OC(C(F)(F)F)C(F)(F)F)N1CCC2(CC1)CN(Cc1c(Cl)cccc1N1CC3COCC3C1)C2 (stereo not drawn) [Example 57, 1,1,1,3,3,3-Hexafluoropropan-2-yl 2-(2-chloro-6-(tetrahydro-1H-furo[3,4-c]pyrrol-5(3H)-yl)benzyl)-2,7-diazaspiro[3.5]nonane-7-carboxylate] | ≥ 75 | < 100 | 100 to 1000
O=C(OC(C(F)(F)F)C(F)(F)F)N1CCC2(CC1)CN(Cc1c(Cl)cccc1N1CCN(C3CC3)CC1)C2 [Example 58, 1,1,1,3,3,3-Hexafluoropropan-2-yl 2-(2-chloro-6-(4-cyclopropylpiperazin-1-yl)benzyl)-2,7-diazaspiro[3.5]nonane-7-carboxylate] | ≥ 75 | < 100 | 100 to 1000
CC(=O)N1CCN(c2cccc(C(F)(F)F)c2CN2CC3(CCN(C(=O)OC(C(F)(F)F)C(F)(F)F)CC3)C2)CC1 [Example 59, 1,1,1,3,3,3-Hexafluoropropan-2-yl 2-(2-(4-acetylpiperazin-1-yl)-6-(trifluoromethyl)benzyl)-2,7-diazaspiro[3.5]nonane-7-carboxylate] | ≥ 75 | < 100 | 100 to 1000

Results, then the compound that gave them:

inhibition at 5 mg/kg (MAGL) [%] | IC50 (MGLL) [nM] | IC50 (ABHD6) [nM] | Compound
≥ 75 | < 100 | > 1000 | O=C(OC(C(F)(F)F)C(F)(F)F)N1CCC2(CCN(Cc3ccc(Cl)cc3N3CCC(F)CC3)CC2)C1 [Example 28, 1,1,1,3,3,3-Hexafluoropropan-2-yl 8-(4-chloro-2-(4-fluoropiperidin-1-yl)benzyl)-2,8-diazaspiro[4.5]decane-2-carboxylate]
≥ 75 | < 100 | > 1000 | CC(=O)N1CCC2(CC1)CCN(c1cc(Cl)ccc1CN1CCN(C(=O)OC(C(F)(F)F)C(F)(F)F)CC1)C2 [Example 29, 1,1,1,3,3,3-Hexafluoropropan-2-yl 4-(2-(8-acetyl-2,8-diazaspiro[4.5]decan-2-yl)-4-chlorobenzyl)piperazine-1-carboxylate]
≥ 75 | < 100 | > 1000 | O=C(OC(C(F)(F)F)C(F)(F)F)N1CCC2(CC1)CN(Cc1c(N3CCCCC3)cccc1C(F)(F)F)C2 [Example 41, 1,1,1,3,3,3-Hexafluoropropan-2-yl 2-(2-(piperidin-1-yl)-6-(trifluoromethyl)benzyl)-2,7-diazaspiro[3.5]nonane-7-carboxylate]
≥ 75 | < 100 | < 100 | O=C(OC(C(F)(F)F)C(F)(F)F)N1CCC2(CC1)CN(Cc1c(Cl)cccc1N1CCOCC1)C2 [Example 46, 1,1,1,3,3,3-Hexafluoropropan-2-yl 2-(2-chloro-6-morpholinobenzyl)-2,7-diazaspiro[3.5]nonane-7-carboxylate]
≥ 75 | < 100 | > 1000 | O=C(OC(C(F)(F)F)C(F)(F)F)N1CCC2(CC1)CN(Cc1c(N3CCC(F)CC3)cccc1C(F)(F)F)C2 [Example 51, 1,1,1,3,3,3-Hexafluoropropan-2-yl 2-(2-(4-fluoropiperidin-1-yl)-6-(trifluoromethyl)benzyl)-2,7-diazaspiro[3.5]nonane-7-carboxylate]
≤ 25 | < 100 | > 1000 | CCN1CCN(c2cccc(C(F)(F)F)c2CN2CC3(CCN(C(=O)OC(C(F)(F)F)C(F)(F)F)CC3)C2)CC1 [Example 54, 1,1,1,3,3,3-Hexafluoropropan-2-yl 2-(2-(4-ethylpiperazin-1-yl)-6-(trifluoromethyl)benzyl)-2,7-diazaspiro[3.5]nonane-7-carboxylate]

Reference: patent US20210214375A1 (LUNDBECK LA JOLLA RESEARCH CENTER, INC., priority 2017, published 2021)
